Laboratory results from patent US20230002374A1, “GPR52 MODULATOR COMPOUNDS” (Heptares Therapeutics Limited, priority 2019, published 2023).

Target: human GPR52 (Homo sapiens, UniProt Q9Y2T5)
Assay: GPR52 Agonist Functional cAMP Assay;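 further: HEKf cells transduced with GPR52 BacMam for 24 h, 2000 per well, exposed to compounds 30 min at 37° C with 0.5 mM IBMX, cAMP read by HTRF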
Details: for Emax: maximal response normalised to DMSO (0%) and maximal compound 7m (J. Med. Chem., 2014, 57, 5226) response (100%); for EC50: pEC50 average, HEKf cells infected with human GPR52 BacMam virus, cAMP HTRF, 30 min at 37° C.
Protocol: Following BacMam infection, cells were pelleted by centrifugation (335 g, 5 min), resuspended in cell freezing medium (Sigma) and frozen at −150° C. until required. On experiment day, 25 nL GPR52 compound dilutions, prepared in DMSO, were stamped onto proxiplates (PerkinElmer) by a LabCyte ECHO acoustic dispenser. Frozen cells were thawed and resuspended in assay stimulation buffer (Cisbio) containing 0.5 mM 3-iso-butyl-1-methylxanthine (IBMX, Sigma) to achieve a density of 2000 cells per well. 10 μl cells were added to assay plates using a Multidrop Combi Reagent Dispenser (ThermoFisher) before centrifugation (335 g, 1 min). Cells were incubated with compounds at 37° C. for 30 min prior to addition of cAMP detection reagents (HiRange cAMP kit, Cisbio) which were prepared according to the manufacturer's instructions. Plates were shaken for 1 h at room temperature before reading on a PHERAstar FS plate reader (BMG Labtech) using standard HTRF settings.

Sequence of human GPR52 (Q9Y2T5 whole entry): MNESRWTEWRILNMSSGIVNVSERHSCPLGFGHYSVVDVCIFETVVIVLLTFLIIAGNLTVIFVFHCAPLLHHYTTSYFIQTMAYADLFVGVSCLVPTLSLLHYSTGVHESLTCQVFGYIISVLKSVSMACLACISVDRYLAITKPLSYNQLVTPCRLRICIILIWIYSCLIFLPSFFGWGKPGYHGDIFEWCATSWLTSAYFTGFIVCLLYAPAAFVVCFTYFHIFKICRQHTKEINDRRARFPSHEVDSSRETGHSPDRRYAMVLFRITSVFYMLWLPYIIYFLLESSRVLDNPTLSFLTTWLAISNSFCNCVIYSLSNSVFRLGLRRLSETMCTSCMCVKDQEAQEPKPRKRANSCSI

SMILES	Emax [%]	EC50 [nM]
CC1Cc2c(cnn2-c2ccnc(Cc3cc(F)cc(C(F)(F)F)c3)c2)C(=O)N1 (stereo not drawn) [Example 40, 1-(2-(3-fluoro-5-(trifluoromethyl)benzyl)pyridin-4-yl)-6-methyl-1,5,6,7-tetrahydro-4H-pyrazolo[4,3-c]pyridin-4-one]	93	100
O=C1NCCCc2c1nnn2-c1cc(Cc2cccc(C(F)(F)F)c2)ccn1 [Example 41, 1-(4-(3-(trifluoromethyl)benzyl)pyridin-2-yl)-5,6,7,8-tetrahydro-[1,2,3]triazolo[4,5-c]azepin-4(1H)-one]	90	794
O=C1NCCc2c1nnn2-c1cc(Cc2cccc(C(F)(F)F)c2)ccn1 [Example 42, 1-(4-(3-(trifluoromethyl)benzyl)pyridin-2-yl)-1,5,6,7-tetrahydro-4H-[1,2,3]triazolo[4,5-c]pyridin-4-one]	90	794
O=C1NCCc2nn(-c3cc(Cc4cccc(C(F)(F)F)c4)ccn3)nc21 [Example 43, 2-(4-(3-(trifluoromethyl)benzyl)pyridin-2-yl)-2,5,6,7-tetrahydro-4H-[1,2,3]triazolo[4,5-c]pyridin-4-one]	86	251
CN1CCc2nn(-c3cc(Cc4cccc(C(F)(F)F)c4)ccn3)nc2C1=O [Example 44, 5-methyl-2-(4-(3-(trifluoromethyl)benzyl)pyridin-2-yl)-2,5,6,7-tetrahydro-4H-[1,2,3]triazolo[4,5-c]pyridin-4-one]	74	2000
O=C1NCCCc2nn(-c3cc(Cc4cccc(C(F)(F)F)c4)ccn3)nc21 [Example 45, 2-(4-(3-(trifluoromethyl)benzyl)pyridin-2-yl)-5,6,7,8-tetrahydro-[1,2,3]triazolo[4,5-c]azepin-4(2H)-one]	75	631
O=C1NCCCc2c1nnn2-c1cc(Cc2cc(F)cc(C(F)(F)F)c2)ccn1 [Example 46, 1-(4-(3-fluoro-5-(trifluoromethyl)benzyl)pyridin-2-yl)-5,6,7,8-tetrahydro-[1,2,3]triazolo[4,5-c]azepin-4(1H)-one]	90	200
O=C1NOCc2c1cnn2-c1cc(Cc2cc(F)cc(C(F)(F)F)c2)ccn1 [Example 47, 1-(4-(3-fluoro-5-(trifluoromethyl)benzyl)pyridin-2-yl)-1,7-dihydropyrazolo[4,3-c/][1,2]oxazin-4(5H)-one]	81	79.4
CC1CNC(=O)c2cnn(-c3ccnc(Cc4cc(F)cc(C(F)(F)F)c4)c3)c21 (stereo not drawn) [Example 50, 1-(2-(3-fluoro-5-(trifluoromethyl)benzyl)pyridin-4-yl)-7-methyl-1,5,6,7-tetrahydro-4H-pyrazolo[4,3-c]pyridin-4-one]	95	39.8
O=C1NCCc2c1ccn2-c1ccnc(Cc2cc(F)cc(C(F)(F)F)c2)c1 [Example 51, 1-(2-(3-fluoro-5-(trifluoromethyl)benzyl)pyridin-4-yl)-1,5,6,7-tetrahydro-4H-pyrrolo[3,2-c]pyridin-4-one]	95	126
O=C1NCCc2c1cnn2-c1ccnc(Oc2cc(F)cc(C(F)(F)F)c2)c1 [Example 52, 1-(2-(3-fluoro-5-(trifluoromethyl)phenoxy)pyridin-4-yl)-1,5,6,7-tetrahydro-4H-pyrazolo[4,3-c]pyridin-4-one]	69	1580
O=C1NCCc2c1cnn2-c1ccnc(Cc2cc(F)cc(C3CC3)c2)c1 [Example 53, 1-(2-(3-cyclopropyl-5-fluorobenzyl)pyridin-4-yl)-1,5,6,7-tetrahydro-4H-pyrazolo[4,3-c]pyridin-4-one]	100	6.31
O=C1NCCc2c1cnn2-c1ccnc(Cc2ccc(C(F)(F)F)c(F)c2)c1 [Example 54, 1-(2-(3-fluoro-4-(trifluoromethyl)benzyl)pyridin-4-yl)-1,5,6,7-tetrahydro-4H-pyrazolo[4,3-c]pyridin-4-one]	63	398
COc1ccc(Cc2cc(-n3ncc4c3CCNC4=O)ccn2)cc1C(F)(F)F [Example 55, 1-(2-(4-methoxy-3-(trifluoromethyl)benzyl)pyridin-4-yl)-1,5,6,7-tetrahydro-4H-pyrazolo[4,3-c]pyridin-4-one]	69	398
O=C1NCCc2c1cnn2-c1cc(Cc2cc(F)cc(C(F)(F)F)c2)ncn1 [Example 56, 1-(6-(3-fluoro-5-(trifluoromethyl)benzyl)pyrimidin-4-yl)-1,5,6,7-tetrahydro-4H-pyrazolo[4,3-c]pyridin-4-one]	98	126
COc1cc(Cc2cc(-n3ncc4c3CCNC4=O)ccn2)cc(C(F)(F)F)c1 [Example 57, 1-(2-(3-methoxy-5-(trifluoromethyl)benzyl)pyridin-4-yl)-1,5,6,7-tetrahydro-4H-pyrazolo[4,3-c]pyridin-4-one]	44	794
O=C1NCCc2c1cnn2-c1ccnc(Cc2cc(F)c(Cl)c(F)c2)c1 [Example 58, 1-(2-(4-chloro-3,5-difluorobenzyl)pyridin-4-yl)-1,5,6,7-tetrahydro-4H-pyrazolo[4,3-c]pyridin-4-one]	79	100

SMILES	Emax [%]	EC50 [nM]
O=C1NCCc2c1cnn2-c1ccnc(Cc2ccc3sccc3c2)c1 [Example 59, 1-(2-(benzo[b]thiophen-5-ylmethyl)pyridin-4-yl)-1,5,6,7-tetrahydro-4H-pyrazolo[4,3-c]pyridin-4-one]	79	79.4
COc1cc(Cc2cc(-n3ncc4c3CCNC4=O)ccn2)ccc1C(F)(F)F [Example 60, 1-(2-(3-methoxy-4-(trifluoromethyl)benzyl)pyridin-4-yl)-1,5,6,7-tetrahydro-4H-pyrazolo[4,3-c]pyridin-4-one]	83	398
O=C1NCCc2c1cnn2-c1ccnc(Cc2cc(F)cc(S(F)(F)(F)(F)F)c2)c1 [Example 61, 1-(2-(3-fluoro-5-(pentafluoro-λ^6-sulfaneyl)benzyl)pyridin-4-yl)-1,5,6,7-tetrahydro-4H-pyrazolo[4,3-c]pyridin-4-one]	99	50.1
O=C1NCCc2c1cnn2-c1ccnc(Cc2cc(F)cc(OC(F)F)c2)c1 [Example 62, 1-(2-(3-(difluoromethoxy)-5-fluorobenzyl)pyridin-4-yl)-1,5,6,7-tetrahydro-4H-pyrazolo[4,3-c]pyridin-4-one]	94	79.4
O=C1NCCc2c1cnn2-c1ccnc(Cc2ccc(OC(F)F)c(F)c2)c1 [Example 63, 1-(2-(4-(difluoromethoxy)-3-fluorobenzyl)pyridin-4-yl)-1,5,6,7-tetrahydro-4H-pyrazolo[4,3-c]pyridin-4-one]	70	126
O=C1NCCc2c1cnn2-c1ccnc(Cc2cc(F)c(F)c(C(F)(F)F)c2)c1 [Example 64, 1-(2-(3,4-difluoro-5-(trifluoromethyl)benzyl)pyridin-4-yl)-1,5,6,7-tetrahydro-4H-pyrazolo[4,3-c]pyridin-4-one]	94	20
O=C1NCCc2c1cnn2-c1ccnc(Cc2cc(F)c(F)c(Cl)c2)c1 [Example 66, 1-(2-(3-chloro-4,5-difluorobenzyl)pyridin-4-yl)-1,5,6,7-tetrahydro-4H-pyrazolo[4,3-c]pyridin-4-one]	100	25.1
O=C1NCCc2c1cnn2-c1ccnc(Cc2cnc3ccccc3c2)c1 [Example 67, 1-(2-(quinolin-3-ylmethyl)pyridin-4-yl)-1,5,6,7-tetrahydro-4H-pyrazolo[4,3-c]pyridin-4-one]	53	1580
O=C1NCCc2c1cnn2-c1ccnc(Cc2cc3ccccc3s2)c1 [Example 69, 1-(2-(benzo[b]thiophen-2-ylmethyl)pyridin-4-yl)-1,5,6,7-tetrahydro-4H-pyrazolo[4,3-c]pyridin-4-one]	60	126
O=C1NCCc2c1cnn2-c1ccnc(Cc2cc(F)c(C(F)(F)F)c(F)c2)c1 [Example 70, 1-(2-(3,5-difluoro-4-(trifluoromethyl)benzyl)pyridin-4-yl)-1,5,6,7-tetrahydro-4H-pyrazolo[4,3-c]pyridin-4-one]	74	316
CC(C)c1cc(F)cc(Cc2cc(-n3ncc4c3CCNC4=O)ccn2)c1 [Example 71, 1-(2-(3-fluoro-5-isopropylbenzyl)pyridin-4-yl)-1,5,6,7-tetrahydro-4H-pyrazolo[4,3-c]pyridin-4-one]	91	20
COc1ncc(Cc2cc(-n3ncc4c3CCNC4=O)ccn2)cc1F [Example 72, 1-(2-((5-fluoro-6-methoxypyridin-3-yl)methyl)pyridin-4-yl)-1,5,6,7-tetrahydro-4H-pyrazolo[4,3-c]pyridin-4-one]	83	1260
O=C1NCCc2c1cnn2-c1ccnc(Cc2cc(Cl)c(F)c(C(F)(F)F)c2)c1 [Example 73, 1-(2-(3-chloro-4-fluoro-5-(trifluoromethyl)benzyl)pyridin-4-yl)-1,5,6,7-tetrahydro-4H-pyrazolo[4,3-c]pyridin-4-one]	88	50.1
O=C1NCCc2c1cnn2-c1ccnc(Cc2cc(F)cc(C3(C(F)(F)F)CC3)c2)c1 [Example 74, 1-(2-(3-fluoro-5-(1-(trifluoromethyl)cyclopropyl)benzyl)pyridin-4-yl)-1,5,6,7-tetrahydro-4H-pyrazolo[4,3-c]pyridin-4-one]	53	501
Cc1cc(Cc2cc(-n3nc(C)c4c3CCNC4=O)ccn2)cnc1F [Example 76, 1-(2-((6-fluoro-5-methylpyridin-3-yl)methyl)pyridin-4-yl)-3-methyl-1,5,6,7-tetrahydro-4H-pyrazolo[4,3-c]pyridin-4-one]	94	79.4
Cc1nn(-c2ccnc(Cc3cc(F)c(F)c(F)c3)c2)c2c1C(=O)NCC2 [Example 77, 3-methyl-1-(2-(3,4,5-trifluorobenzyl)pyridin-4-yl)-1,5,6,7-tetrahydro-4H-pyrazolo[4,3-c]pyridin-4-one]	95	15.8
